Experimental findings from ChEMBL document CHEMBL4052811, “Design, synthesis and antiproliferative activity of novel substituted 2-amino-7,8-dihydropteridin-6(5H)-one derivatives” (Bioorg Med Chem Lett, 2017) are described below.

Assay [1] concerns T47D. Put plainly: Cytotoxicity against human T47D cells after 48 hrs by MTT assay. The format is functional, cell-based. For orientation: Formazan colour is commonly taken as a measure of viable cells.
Assay [2] has as its system MDA-MB-468. Put plainly: Cytotoxicity against human MDA-MB-468 cells after 48 hrs by MTT assay. Type of assay: functional, cell-based. The settings on record: MDA-MB-468, 48 h.
Another assay concerns MDA-MB-231. Nature of the assay: Cytotoxicity against human MDA-MB-231 cells after 48 hrs by MTT assay. The format is functional, cell-based. The settings on record: MDA-MB-231, 48 h.
The subject of assay [3] is BT-549. Put plainly: Cytotoxicity against human BT549 cells after 48 hrs by MTT assay. Type of assay: functional, cell-based. To be noted: BT-549, 48 h.
Assay [4] has as its system MDA-MB-468. Nature of the assay: Potency index, ratio of fluorouracil IC50 to compound IC50 for human MDA-MB-468 cells. Type of assay: functional.
In assay [5] the test system is T47D. Nature of the assay: Cell cycle arrest in human T47D cells assessed as accumulation at G2/M phase at 3 uM after 12 to 48 hrs by FACS analysis (reference value: 18.51%). The format is functional.
The test system of assay [6] is T47D. Put plainly: Cell cycle arrest in human T47D cells assessed as accumulation at G2/M phase at 12 uM after 12 to 48 hrs by FACS analysis (reference value: 18.51%). Type of assay: functional. For orientation: Flow cytometry measures light scatter and fluorescence of single cells or particles in a stream.
Assay [7] concerns T47D. Put plainly: Cell cycle arrest in human T47D cells assessed as accumulation at S phase at 3 uM after 12 to 48 hrs by FACS analysis (reference value: 21.82%). Type of assay: functional.
Assay [8] deals with T47D. Nature of the assay: Cell cycle arrest in human T47D cells assessed as accumulation at G0/G1 phase at 12 uM after 12 to 48 hrs by FACS analysis (reference value: 59.67%). Type of assay: functional.
For assay [9], the system named is T47D. Put plainly: Cell cycle arrest in human T47D cells assessed as accumulation at G2/M phase at 6 uM after 12 to 48 hrs by FACS analysis (reference value: 18.51%). Type of assay: functional.
Assay [10] relates to T47D. Put plainly: Cell cycle arrest in human T47D cells assessed as accumulation at G0/G1 phase at 3 uM after 12 to 48 hrs by FACS analysis (reference value: 59.67%). Type of assay: functional.
Assay [11] relates to T47D. Put plainly: Cell cycle arrest in human T47D cells assessed as accumulation at G0/G1 phase at 6 uM after 12 to 48 hrs by FACS analysis (reference value: 59.67%). Type of assay: functional.
Assay [12] deals with T47D. Put plainly: Cell cycle arrest in human T47D cells assessed as accumulation at S phase at 6 uM after 12 to 48 hrs by FACS analysis (reference value: 21.82%). Type of assay: functional.
For assay [13], the system named is T47D. Nature of the assay: Cell cycle arrest in human T47D cells assessed as accumulation at S phase at 12 uM after 12 to 48 hrs by FACS analysis (reference value: 21.82%). Type of assay: functional.
Assay [14] concerns T47D. Nature of the assay: Potency index, ratio of fluorouracil IC50 to compound IC50 for human T47D cells. The format is functional.
Assay [15] relates to BT-549. Nature of the assay: Potency index, ratio of fluorouracil IC50 to compound IC50 for human BT549 cells. The format is functional.
The test system of assay [16] is T47D. Nature of the assay: Cell cycle arrest in human T47D cells assessed as accumulation at G1 phase after 12 to 48 hrs by FACS analysis. Type of assay: functional, cell-based.

Molecules are shown by their SMILES.

Regarding `O=c1[nH]cc(F)c(=O)[nH]1` [FLUOROURACIL], the half-inhibitory concentration (IC50) (commonly the midpoint of a concentration-inhibition curve) in the assay with T47D [1] was 171 µM; with MDA-MB-468 [2], 95.7 µM; in the assay on MDA-MB-231, 53.5 µM; in the assay with BT-549 [3], 98.2 µM.
For `CS(=O)(=O)N1CCC(Nc2ncc3c(n2)N(Cc2ccccc2)CC(=O)N3)CC1` the same measures were above 100 µM, 97.4 µM, above 100 µM and above 100 µM.
Consider `COc1cccc(Nc2ncc3c(n2)NCC(=O)N3)c1`, for which the half-maximal inhibitory concentration (IC50) with T47D [1] is above 100 µM; with MDA-MB-468 [2] it was above 100 µM; in the assay with MDA-MB-231, 93.2 µM; in the assay with BT-549 [3], above 100 µM.
On to `O=C1CN(Cc2ccccc2)c2nc(Nc3ccccc3)ncc2N1`, for which the IC50 was 15.2 µM with T47D [1], 20.6 µM with MDA-MB-468 [2], 37 µM in the assay on MDA-MB-231 and 11.9 µM with BT-549 [3].
As to `O=C1CN(Cc2ccccc2)c2nc(NCCc3ccccc3)ncc2N1`, the “Ratio IC50” value in the assay with MDA-MB-468 [4] is given as 49; with T47D [14], 11; in the assay with BT-549 [15], 8. Besides, the Activity came out at 19.76% in the assay with T47D [5]; 20.98% in the assay on T47D [6]; 18.98% in the assay with T47D [7]; 74.68% in the assay with T47D [8]; 16.5% with T47D [9]; 61.25% with T47D [10]. In addition, the Activity in the assay with T47D [11] is 72.7%; with T47D [12] it was 10.8%; in the assay with T47D [13], 4.34%; in the assay on T47D [16] it was “Dose-dependent effect”. Besides, the IC50 amounted to 6.37 µM with T47D [1], 7.75 µM in the assay with MDA-MB-468 [2], 22.4 µM with MDA-MB-231 and 10.7 µM in the assay on BT-549 [3].
`COc1cc(Nc2ncc3c(n2)N(C)CC(=O)N3)cc(OC)c1OC`: the IC50 in the assay with T47D [1] was determined as 56.2 µM; in the assay with MDA-MB-468 [2] it was 66.1 µM; with MDA-MB-231, 46.2 µM; in the assay with BT-549 [3], 45.2 µM.
The matching figures for `COc1cccc(Nc2ncc3c(n2)N(Cc2ccccc2)CC(=O)N3)c1`: 78.7 µM, 40.4 µM, 99.9 µM and 81.1 µM.
For `CCOC(=O)CNc1ncc2c(n1)N(Cc1ccccc1)CC(=O)N2`, the IC50 in the assay on T47D [1], in the assay on MDA-MB-468 [2], in the assay on MDA-MB-231 and in the assay on BT-549 [3] was above 100 µM each time.
In the case of `COc1cccc(Nc2ncc3c(n2)N(C)CC(=O)N3)c1`, the IC50 with T47D [1], in the assay on MDA-MB-468 [2], in the assay with MDA-MB-231 and with BT-549 [3] was above 100 µM each time.
In the case of `O=C1CNc2nc(Nc3ccc(F)cc3)ncc2N1`, the IC50 in the assay on T47D [1] was above 100 µM; in the assay on MDA-MB-468 [2], above 100 µM; in the assay on MDA-MB-231 it was above 100 µM; in the assay with BT-549 [3] it was 92.4 µM.
For `COc1ccc(Nc2ncc3c(n2)NCC(=O)N3)cc1`, the half-maximal inhibitory concentration (IC50) in the assay with T47D [1] was 89.2 µM; in the assay on MDA-MB-468 [2], above 100 µM; in the assay on MDA-MB-231, above 100 µM; with BT-549 [3] it was 95 µM.
With `CCOC(=O)CN(Cc1ccccc1)c1nc(NCCc2ccccc2)ncc1[N+](=O)[O-]`, the IC50 in the assay on T47D [1] stood at 6.59 µM; with MDA-MB-468 [2], 6.26 µM; with MDA-MB-231, 24.2 µM; in the assay on BT-549 [3] it was 13.7 µM.
`CN1CC(=O)Nc2cnc(Nc3ccccc3)nc21`: the IC50 in the assay with T47D [1], with MDA-MB-468 [2], with MDA-MB-231 and with BT-549 [3] was above 100 µM each time.
As to `O=C1CNc2nc(Nc3ccc(Cl)cc3)ncc2N1`, the IC50 came to 29.3 µM in the assay on T47D [1], 15 µM with MDA-MB-468 [2], 41.6 µM in the assay on MDA-MB-231 and 17.7 µM in the assay with BT-549 [3].
For `CN1CCN(Nc2ncc3c(n2)N(Cc2ccccc2)CC(=O)N3)CC1` the same measures were 79 µM, above 100 µM, 98.3 µM and 98.3 µM.
The matching figures for `O=C1CNc2nc(Nc3ccccc3)ncc2N1`: 85.4 µM, above 100 µM, above 100 µM and above 100 µM.
The matching figures for `COc1cc(Nc2ncc3c(n2)N(Cc2ccccc2)CC(=O)N3)cc(OC)c1OC`: 8.76 µM, above 100 µM, 10.6 µM and 12.8 µM.
With `CN1CC(=O)Nc2cnc(NCCc3ccccc3)nc21`, the 50% inhibitory concentration (IC50) was 23.2 µM in the assay with T47D [1], 56.2 µM with MDA-MB-468 [2], 34.2 µM in the assay with MDA-MB-231 and 41.2 µM in the assay with BT-549 [3].
The matching figures for `COc1cccc(CNc2ncc3c(n2)N(Cc2ccccc2)CC(=O)N3)c1`: 15.3 µM, 23.2 µM, 47 µM and 15.6 µM.
The matching figures for `CN1CC(=O)Nc2cnc(Nc3ccc(Cl)cc3)nc21`: 36 µM, 31.3 µM, above 100 µM and 91 µM.
For `CN1CC(=O)Nc2cnc(NCc3ccccc3)nc21` the same measures were 89.7 µM, 94.4 µM, 92 µM and 78.8 µM.
For the molecule `O=C1CN(Cc2ccccc2)c2nc(Nc3ccc(Cl)cc3)ncc2N1`, the IC50 in the assay on T47D [1], in the assay with MDA-MB-468 [2], in the assay with MDA-MB-231 and in the assay with BT-549 [3] was above 100 µM each time.
